In patent US4163662A, “Liquid formulations of 1-(3,4-dichlorophenyl)-3-methoxy-3-methylurea and selected chloroacetamides” (E. I. Du Pont de Nemours and Company, priority 1977, dated 1979):

How the values were obtained:
Assay type in all cases: physicochemical
[1] = Amount of insoluble crystalline material after room temperature storage (Tables III, IV, V)
Procedure: Samples weighing 5 grams each total weight were prepared by mixing the indicated solids and liquids, in the indicated proportions and shaking in closed vials, which were sealed with epoxy cement to prevent evaporation.
Tables III, IV, and V show the proportions of each mixture and the amounts of insoluble, crystalline material observed in each case after room temperature storage: […]

[2] = Cold Storage Test at 3° C. and at -8° to -9° C., alachlor/linuron (Table II); details: for Max. Stable concentration / Min. Unstable concentration: total active ingredient
Procedure: (§1) Purified linuron, purified propachlor, purified alachlor and commercial "Triclene" (trichloroethylene, technical) are used in the procedure. Samples containing various ratios and concentrations of linuron, propachlor, and linuron-propachlor mixtures are placed in a cold chest. The temperature is lowered and samples are seeded with traces of dust of the active ingredients after the solution has been cooled to the test temperature of -5° C. The samples are then observed over the course of at least 3 to 4 days to determine whether crystallization has occurred. When the temperature of the system is maintained within the range of -4.5° to -5.0° C. for 4 days after seeding. The maximum solution concentration in grams of active ingredient per 100 grams of solvent, at which no crystallization occurs (Max. Stable), and the minimum solution concentration at which crystals first appear (Min. Unstable) are observed.
A similar test was run replacing propachlor with alachlor and at ^+ 3° C. and at -8° to -9° C. with the following results: […]

[3] = Cold Storage Test at -5° C., propachlor/linuron in trichloroethylene (Table I); details: for Max. Stable concentration (no crystallization) / Min. Unstable concentration (crystals first appear): total active ingredient
Excerpt: The temperature limits below which crystallization of solute will occur can be measured by storing samples in a controlled temperature chest, seeding with tiny crystals of pure materials and observing the growth or disappearance of crystals after a period of several days. If no crystals form, the process is then repeated at a lower temperature, until the limit of stability has been found. However, crystallization characteristics can be also meaningfully, rapidly and conveniently measured by a determination of the cloud point of the system.
as §1

Row | Structure (SMILES) | crystalline material ([1]; 5 weight % linuron, 95% tetrachloroethylene, room temperature) | crystalline material ([1]; 9 weight % linuron, 91% tetrachloroethylene, room temperature) | crystalline material ([1]; 9 weight % linuron, 91% xylene, room temperature) | crystalline material ([1]; 10 weight % linuron, 90% "Panasol" AN-3, room temperature) | crystalline material ([1]; 15 weight % linuron, 85% "Panasol" AN-3, room temperature) | crystalline material ([1]; 17 weight % linuron, 83% xylene, room temperature) | dissolution result on shaking in the solvent ([1]; hydrocarbons and halocarbons, room temperature) | Max. Solubility Range For Linuron ([2]; 3° C.) | Max. Stable concentration ([2]; 3° C.) [grams/100 grams Solvent] | Min. Unstable concentration ([2]; 3° C.) [grams/100 grams Solvent] | Max. Solubility Range For Linuron ([2]; -8° to -9° C.) | Max. Stable concentration ([2]; -8° to -9° C.) [grams/100 grams Solvent] | Min. Unstable concentration ([2]; -8° to -9° C.) [grams/100 grams Solvent] | Max. Solubility Range, Linuron [3] | Max. Stable concentration (no crystallization) [3] [grams/100 grams Solvent] | Min. Unstable concentration (crystals first appear) [3] [grams/100 grams Solvent] | crystalline material ([1]; 18 weight % propachlor, 82% tetrachloroethylene, room temperature) | crystalline material ([1]; 30 weight % propachlor, 70% "Panasol" AN-3, room temperature) | crystalline material ([1]; 34 weight % propachlor, 66% xylene, room temperature) | Max. Solubility Range, Propachlor [3]
1 | CON(C)C(=O)Nc1ccc(Cl)c(Cl)c1 [Linuron, 1-(3,4-dichlorophenyl)-3-methoxy-3-methylurea] | moderate | heavy | slight | moderate | heavy | heavy | crystals remained | 4.1-4.7 grams/100 grams Solvent | 4.1 | 4.7 | 3.6-4.1 grams/100 grams Solvent | 3.6 | 4.1 | 4.1-5.2 grams/100 grams Solvent | 4.1 | 5.2 |  |  |  | 
2 | CC(C)N(C(=O)CCl)c1ccccc1 [Propachlor, 2-chloro-N-isopropylacetanilide] |  |  |  |  |  |  |  |  |  |  |  |  |  |  | 21.9 | 25 | moderate | moderate | moderate | 21.9-25 grams/100 grams Solvent
